Test results from patent US10221156B2, “Pyridin-3-yl acetic acid derivatives as inhibitors of human immunodeficiency virus replication” (ViiV HEALTHCARE UK (No. 5) LIMITED, priority 2015, dated 2019).
Read-outs that look alike come from different tables or passages of the source.

Test system: recombinant NL-RLuc virus (HIV NL4-3 with Renilla Luciferase) in MT-2 cells
Assay: Inhibition of HIV replication (NL-RLuc virus in MT-2 cells, luciferase readout)
Format: cell-based
Text: Inhibition of HIV Replication:
A recombinant NL-RLuc proviral clone was constructed in which a section of the nef gene from NL4-3 was replaced with the Renilla Luciferase gene. This virus is fully infectious and can undergo multiple cycles of replication in cell culture. In addition, the luciferous reporter provides a simple and easy method for quantitating the extent of virus growth and consequently, the antiviral activity of test compounds. The plasmid pNLRLuc contains the proviral NL-Rluc DNA cloned into pUC18 at the PvuII site. The NL-RLuc virus was prepared by transfection of 293T cells with the plasmid pNLRLuc. Transfections were performed using the LipofectAMINE PLUS kit from Invitrogen (Carlsbad, Calif.) according to the manufacturer and the virus generated was titered in MT-2 cells. For susceptibility analyses, the titrated virus was used to infect MT-2 cells in the presence of compound, and after 5 days of incubation, cells were processed and quantitated for virus growth by the amount of expressed luciferase. Assay media was RPMI 1640 supplemented with 10% heat inactivated fetal bovine serum (FBS), 100 units/ml penicillin G/100 units/ml streptomycin, 10 mM HEPES buffer pH 7.55 and 2 mM L-glutamine. The results from at least 2 experiments were used to calculate the EC50 values. Luciferase was quantitated using the Dual Luciferase kit from Promega (Madison, Wis.). Susceptibility of viruses to compounds was determined by incubation in the presence of serial dilutions of the compound. The 50% effective concentration (EC50) was calculated by using the exponential form of the median effect equation where (Fa)=1/[1+(ED50/drug conc.)^m] (Johnson V A, Byington R T. Infectivity Assay. In Techniques in HIV Research. ed. Aldovini A, Walker B D. 71-76. New York: Stockton Press. 1990). Activity equal to A refers to a compound having an EC50≤100 nM, while B and C denote compounds having an EC50 between 100 nM and 1 uM (B) or >1 uM (C).

SMILES	EC50 (MT2, 120 h, read-out: Activity)	EC50 ({})	EC50 (MT2, 120 h, read-out: EC50 μM)
Cc1nc(C)c([C@H](OC(C)(C)C)C(=O)O)c(N2CCC(C)(C)CC2)c1-c1ccc(OCC2CCC(C)CC2)cc1 (stereo partly drawn) [Example 8, (S)-2-(tert-Butoxy)-2-(4-(4,4-dimethylpiperidin-1-yl)-2,6-dimethyl-5-(4-((4-methylcyclohexyl)methoxy)phenyl)pyridin-3-yl)acetic Acid]	< 0.1 µM		
COc1cccc(C2CCN(CCOc3ccc(-c4c(C)nc(C)c([C@H](OC(C)(C)C)C(=O)O)c4N4CCC(C)(C)CC4)cc3)CC2)c1 [Example 6, (S)-2-(tert-Butoxy)-2-(4-(4,4-dimethylpiperidin-1-yl)-5-(4-(2-(4-(3-methoxyphenyl)piperidin-1-yl)ethoxy)phenyl)-2,6-dimethylpyridin-3-yl)acetic Acid]	< 0.1 µM		
Cc1nc(C)c([C@H](OC(C)(C)C)C(=O)O)c(N2CCC(C)(C)CC2)c1-c1ccc(OC2CCCC2c2ccc(F)cc2)cc1 (stereo partly drawn) [Example 18, (2S)-2-(tert-Butoxy)-2-(4-(4,4-dimethylpiperidin-1-yl)-5-(4-((2-(4-fluorophenyl)cyclopentyl)oxy)phenyl)-2,6-dimethylpyridin-3-yl)acetic acid]		< 0.1 µM	
Cc1nc(C)c([C@H](OC(C)(C)C)C(=O)O)c(N2CCC(C)(C)CC2)c1-c1ccc(OCCN2CCN(Cc3ccc(F)cc3)CC2)cc1 [Example 10, (S)-2-(tert-Butoxy)-2-(4-(4,4-dimethylpiperidin-1-yl)-5-(4-(2-(4-(4-fluorobenzyl)piperazin-1-yl)ethoxy)phenyl)-2,6-dimethylpyridin-3-yl)acetic Acid]	< 0.1 µM		
Cc1nc(C)c([C@H](OC(C)(C)C)C(=O)O)c(N2CCC(C)(C)CC2)c1-c1ccc(OCCN2CCCCC2)cc1 [Example 4, (S)-2-(tert-Butoxy)-2-(4-(4,4-dimethylpiperidin-1-yl)-2,6-dimethyl-5-(4-(2-(piperidin-1-yl)ethoxy)phenyl)pyridin-3-yl)acetic Acid]	< 0.1 µM		
Cc1nc(C)c([C@H](OC(C)(C)C)C(=O)O)c(N2CCC(C)(C)CC2)c1-c1ccc(OC2COCC2c2ccc(F)cc2)cc1 (stereo partly drawn) [Example 20, (2S)-2-(tert-Butoxy)-2-(4-(4,4-dimethylpiperidin-1-yl)-5-(4-((4-(4-fluorophenyl)tetrahydrofuran-3-yl)oxy)phenyl)-2,6-dimethylpyridin-3-yl)acetic acid]		< 0.1 µM	
Cc1nc(C)c([C@H](OC(C)(C)C)C(=O)O)c(N2CCC(C)(C)CC2)c1-c1ccc(OC2CCOc3ccccc32)cc1 (stereo partly drawn) [Example 3, (2S)-2-(tert-Butoxy)-2-(5-(4-(chroman-4-yloxy)phenyl)-4-(4,4-dimethylpiperidin-1-yl)-2,6-dimethylpyridin-3-yl)acetic Acid]	< 0.1 µM		
Cc1nc(C)c([C@H](OC(C)(C)C)C(=O)O)c(N2CCC(C)(C)CC2)c1-c1ccc(OC2COCC2c2ccc(F)cc2)cc1 (stereo partly drawn) [Example 19, (2S)-2-(tert-Butoxy)-2-(4-(4,4-dimethylpiperidin-1-yl)-5-(4-((4-(4-fluorophenyl)tetrahydrofuran-3-yl)oxy)phenyl)-2,6-dimethylpyridin-3-yl)acetic acid]	< 0.1 µM		
Cc1nc(C)c([C@H](OC(C)(C)C)C(=O)O)c(N2CCC(C)(C)CC2)c1-c1ccc(OC2CC(c3ccc(F)cc3)C2)cc1 (stereo partly drawn) [Example 15, (S)-2-(tert-Butoxy)-2-(4-(4,4-dimethylpiperidin-1-yl)-5-(4-(3-(4-fluorophenyl)cyclobutoxy)phenyl)-2,6-dimethylpyridin-3-yl)acetic Acid]	< 0.1 µM		
Cc1nc(C)c([C@H](OC(C)(C)C)C(=O)O)c(N2CCC(C)(C)CC2)c1-c1ccc(OCCN2CCN(C)CC2)cc1 [Example 1, (S)-2-(tert-Butoxy)-2-(4-(4,4-dimethylpiperidin-1-yl)-2,6-dimethyl-5-(4-(2-(4-methylpiperazin-1-yl)ethoxy)phenyl)pyridin-3-yl)acetic Acid]	0.1 to 1 µM		0.117 µM
Cc1nc(C)c([C@H](OC(C)(C)C)C(=O)O)c(N2CCC(C)(C)CC2)c1-c1ccc(OC2CCCC2c2ccc(F)cc2)cc1 (stereo partly drawn) [Example 17, (2S)-2-(tert-Butoxy)-2-(4-(4,4-dimethylpiperidin-1-yl)-5-(4-((2-(4-fluorophenyl)cyclopentyl)oxy)phenyl)-2,6-dimethylpyridin-3-yl)acetic acid]	< 0.1 µM		0.012 µM
Cc1nc(C)c([C@H](OC(C)(C)C)C(=O)O)c(N2CCC(C)(C)CC2)c1-c1ccc(OCCN2CCS(=O)(=O)CC2)cc1 [Example 14, (S)-2-(tert-Butoxy)-2-(4-(4,4-dimethylpiperidin-1-yl)-5-(4-(2-(1,1-dioxidothiomorpholino)ethoxy)phenyl)-2,6-dimethylpyridin-3-yl)acetic Acid]	< 0.1 µM		
Cc1nc(C)c([C@H](OC(C)(C)C)C(=O)O)c(N2CCC(C)(C)CC2)c1-c1ccc(OCC2CCC(C)CC2)cc1 (stereo partly drawn) [Example 9, (S)-2-(tert-Butoxy)-2-(4-(4,4-dimethylpiperidin-1-yl)-2,6-dimethyl-5-(4-((4-methylcyclohexyl)methoxy)phenyl)pyridin-3-yl)acetic Acid]		< 0.1 µM	
Cc1nc(C)c([C@H](OC(C)(C)C)C(=O)O)c(N2CCC(C)(C)CC2)c1-c1ccc(OC2CCC(c3ccc(F)cc3)CC2)cc1 (stereo partly drawn) [Example 16, (S)-2-(tert-Butoxy)-2-(4-(4,4-dimethylpiperidin-1-yl)-5-(4-((4-(4-fluorophenyl)cyclohexyl)oxy)phenyl)-2,6-dimethylpyridin-3-yl)acetic Acid]	< 0.1 µM		
Cc1nc(C)c([C@H](OC(C)(C)C)C(=O)O)c(N2CCC(C)(C)CC2)c1-c1ccc(OCCN2CCSCC2)cc1 [Example 13, (S)-2-(tert-Butoxy)-2-(4-(4,4-dimethylpiperidin-1-yl)-2,6-dimethyl-5-(4-(2-thiomorpholinoethoxy)phenyl)pyridin-3-yl)acetic Acid]	< 0.1 µM		0.003 µM
Cc1nc(C)c([C@H](OC(C)(C)C)C(=O)O)c(N2CCC(C)(C)CC2)c1-c1ccc(OCCC2CCCCC2)cc1 [Example 2, (S)-2-(tert-Butoxy)-2-(5-(4-(2-cyclohexylethoxy)phenyl)-4-(4,4-dimethylpiperidin-1-yl)-2,6-dimethylpyridin-3-yl)acetic Acid]	< 0.1 µM		0.034 µM
Cc1nc(C)c([C@H](OC(C)(C)C)C(=O)O)c(N2CCC(C)(C)CC2)c1-c1ccc(OCCN2CCC(C)CC2)cc1 [Example 7, (S)-2-(tert-Butoxy)-2-(4-(4,4-dimethylpiperidin-1-yl)-2,6-dimethyl-5-(4-(2-(4-methylpiperidin-1-yl)ethoxy)phenyl)pyridin-3-yl)acetic Acid]	< 0.1 µM		
Cc1nc(C)c([C@H](OC(C)(C)C)C(=O)O)c(N2CCC(C)(C)CC2)c1-c1ccc(OCC2(c3ccc(F)cc3)CC2)cc1 [Example 11]	< 0.1 µM		0.003 µM
Cc1nc(C)c([C@H](OC(C)(C)C)C(=O)O)c(N2CCC(C)(C)CC2)c1-c1ccc(OCCN2CCOCC2)cc1 [Example 5, (S)-2-(tert-Butoxy)-2-(4-(4,4-dimethylpiperidin-1-yl)-2,6-dimethyl-5-(4-(2-morpholinoethoxy)phenyl)pyridin-3-yl)acetic Acid]	< 0.1 µM		0.021 µM
Cc1nc(C)c([C@H](OC(C)(C)C)C(=O)O)c(N2CCC(C)(C)CC2)c1-c1ccc(OC2Cc3ccccc3C2)cc1 [Example 12, (S)-2-(tert-Butoxy)-2-(5-(4-((2,3-dihydro-1H-inden-2-yl)oxy)phenyl)-4-(4,4-dimethylpiperidin-1-yl)-2,6-dimethylpyridin-3-yl)acetic Acid]	< 0.1 µM		
